Source: patent publication US8450333B2, “Molecules for regulating cell death” (The Regents of The University of California, priority 2003, dated 2013)

Columns and labels:
[1] = target: T1, dynamin-1 (Homo sapiens, UniProt Q05193); experiment: Assembly-stimulated GTP hydrolysis by dynamin-1; assay type: biochemical
T1 sequence (Q05193 1-864): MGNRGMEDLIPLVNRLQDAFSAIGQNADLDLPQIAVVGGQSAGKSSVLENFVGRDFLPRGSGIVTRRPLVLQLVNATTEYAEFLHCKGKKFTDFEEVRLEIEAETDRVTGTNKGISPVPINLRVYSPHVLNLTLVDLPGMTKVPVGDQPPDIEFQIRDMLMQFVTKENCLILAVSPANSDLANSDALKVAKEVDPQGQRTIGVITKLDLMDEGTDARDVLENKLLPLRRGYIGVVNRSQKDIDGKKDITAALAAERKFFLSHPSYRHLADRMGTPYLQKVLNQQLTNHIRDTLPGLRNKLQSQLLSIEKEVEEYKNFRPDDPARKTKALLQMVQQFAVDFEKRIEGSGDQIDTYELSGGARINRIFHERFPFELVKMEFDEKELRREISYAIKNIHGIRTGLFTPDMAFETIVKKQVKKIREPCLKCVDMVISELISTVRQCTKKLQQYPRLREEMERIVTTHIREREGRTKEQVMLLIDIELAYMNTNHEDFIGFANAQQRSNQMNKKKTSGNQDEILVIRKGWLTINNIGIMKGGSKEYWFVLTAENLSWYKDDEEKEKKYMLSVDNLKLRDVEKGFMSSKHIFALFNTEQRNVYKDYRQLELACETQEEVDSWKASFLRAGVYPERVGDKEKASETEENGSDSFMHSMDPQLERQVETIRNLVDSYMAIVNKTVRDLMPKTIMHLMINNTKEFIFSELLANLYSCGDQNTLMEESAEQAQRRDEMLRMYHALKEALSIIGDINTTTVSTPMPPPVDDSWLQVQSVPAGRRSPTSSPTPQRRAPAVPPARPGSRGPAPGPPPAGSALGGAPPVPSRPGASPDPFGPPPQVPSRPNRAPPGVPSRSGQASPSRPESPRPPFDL
Description: Our observations raise the question of whether mfisi-1 is simply a general inhibitor of GTPase super family members and/or DRPs. It seems unlikely that mfisi-1 is an inhibitor of all GTPase superfamily members, given that it has no effect on GTPase-dependent activities, such as maintenance of the actin cytoskeleton. To more directly address this question, however, we examined the effects of mfisi-1 on the DRP, dynamin-1, which functions during endocytosis in the scission of clathrin coated pits from the plasma membrane. […] We will continue to explore the specificity of mfisi-1 for DRPs by determining its effects on the mammalian Dnm1 ortholog, Drp1. […] Taken together, our data are consistent with mfisi-1 functioning in vivo as a selective inhibitor of the dynamin-related GTPase, Dnm1, to block mitochondrial fission.

[2] = system: Δdnm1 cells; experiment: Mitochondrial morphology in Δdnm1 yeast cells; assay type: cell-based
Description: Formally, the small molecules we identified could produce their phenotypes by either inhibiting or activating fission or fusion. To distinguish the exact effects of mfisi-1 and other small molecules identified in our screens on mitochondrial dynamics, we have directly measured the rates of fission and fusion events after drug addition in yeast cells by examining the behavior of mitochondria using time-lapse fluorescence microscopy. […] In contrast, in DMSO treated control cells, both fission and fusion events were easily detected in the same time frame.
To determine the target of mfisi-2, we will characterize this small molecule using the assays for fission. We will also determine whether mfisi-2 affects mitochondrial morphology in mammalian cells. If this is the case, then mfisi-2 might inhibit mitochondrial fission by affecting conserved fission-related activities. […] If mfisi-2 produces mitochondrial net-like structures in mammalian cells, we will determine its effects on apoptosis as described previously. Prioritization and characterization of potential mitochondrial fusion inhibitors In our screens for mitochondrial fusion inhibitors, we identified a total of 37 compounds. […] To determine whether fragmentation in drug-treated cells is strictly dependent upon Dnm1-dependent fission, we determined the effects of these small molecules on mitochondrial morphology in Δdnm1 cells. […]

[3] = system: actin cytoskeleton and peripheral ER network; experiment: Actin cytoskeleton and peripheral ER network in yeast; assay type: cell-based; conditions: 100 μM, versus DMSO-treated cells, n=50
Description: These structures are routinely examined in yeast mitochondrial morphology mutants as a test for the specificity of the mitochondrial phenotype.

COc1cc(-n2c(S)nc3ccccc3c2=O)c(Cl)cc1Cl [mfisi-1, 3-(2,4-Dichloro-5-methoxy-phenyl)-2-mercapto-3H-quinazolin-4-one]
effect on assembly-stimulated rates of GTP hydrolysis for dynamin-1 [1]: had no effect
effect on mitochondrial morphology in Δdnm1 cells [2]: did not change the net-like morphology
changes in actin cytoskeleton or peripheral ER network [3]: did not result in significant changes
